Test results published in patent publication US20130317222A1, “SOLID FORMS OF GYRASE INHIBITOR (R)-1-ETHYL-3-[5-[2-(1-HYDROXY-1-METHYL-ETHYL)PYRIMIDIN-5-YL]-7-(TETRAHYDROFURAN-2-YL]-1H-BENZIMIDAZOL-2-YL]UREA” (Vertex Pharmaceuticals Incorporated, priority 2011, published 2013).
Counter-ions that a name gives are not always drawn.

Key:
Staphylococcus aureus = assay: MIC, micro dilution broth method (Protocol 1); assay type: cell-based
[1] = system: Staphylococcus epidermidis; assay: MIC, micro dilution broth method (Protocol 1); assay type: cell-based; conditions: Staphlococcus epidermidis, 35 isolates tested
Enterococcus faecalis = assay: MIC, micro dilution broth method (Protocol 1); assay type: cell-based
Enterococcus faecium = assay: MIC, micro dilution broth method (Protocol 1); assay type: cell-based
Streptococcus pneumoniae = assay: MIC, micro dilution broth method (Protocol 1); assay type: cell-based
[2] = system: β-haemolytic streptococci (Groups A, B, C and G); assay: MIC, micro dilution broth method (Protocol 1); assay type: cell-based; conditions: 28 isolates tested
Bacillus cereus = assay: MIC, micro dilution broth method (Protocol 1); assay type: cell-based
Bacillus subtilis = assay: MIC, micro dilution broth method (Protocol 1); assay type: cell-based
Haemophilus influenzae = assay: MIC against Gram negatives, microdilution broth method (Protocol 2); assay type: cell-based
Description: The specific protocols used were as follows:
Drug Dilutions, Inoculation, MIC Determination: • 1. […] All MICs were done in duplicate. • 6.

Clostridium difficile = assay: MIC, agar dilution method (Protocol 3); assay type: cell-based
Clostridium perfringens = assay: microbe, parasite or virus in culture; assay type: cell-based
Bacteroides fragilis = assay: MIC, agar dilution method (Protocol 3); assay type: cell-based; conditions: 25 isolates tested
[3] = system: Bacteroides and Parabacter spp.; assay: MIC, agar dilution method (Protocol 3); assay type: cell-based; conditions: 26 isolates tested
Fusobacterium spp. = assay: MIC, agar dilution method (Protocol 3); assay type: cell-based; conditions: 16 isolates tested
Peptostreptococcus spp. = assay: MIC, agar dilution method (Protocol 3); assay type: cell-based; conditions: 11 isolates tested
Prevotella spp. = assay: MIC, agar dilution method (Protocol 3); assay type: cell-based; conditions: 13 isolates tested
Neisseria gonorrhoeae = assay: MIC, agar dilution method (Protocol 3); assay type: cell-based
Procedure: (§1) Plate Pouring: • 1. Prepared 100× drug stocks of each test compound as described in Table 1A. Used a 15 mL centrifuge tube, added 100 uL of each drug stock to 10 mL of molten agar (cooled to 55° C. in water bath). Mixed by inverting tube 2-3× then pour into individually labeled 60×15 mm Petri dish. • 2. […] Poured 4 drug free plates: 2 as positive control, 2 as aerobic control. • 4. Allowed plates to dry. Used same day or stored overnight at RT or stored up to 3 days at 4° C. • 5. Plates were labeled accordingly for drug concentration and strain placement. Plate Inoculation (Performed in Biosafety Cabinet): • 1. Streaked each strain onto individual agar plates as described above. Incubated for required time and environmental condition (i.e. anaerobic, microaerophilic, etc). • 2. Used direct colony suspension method to suspend loopfuls of freshly streaked cells into 4 mL 0.9% […] and vortexed. • 3. Adjusted suspension to O.D.600 0.05 (5×10e7 cfu/mL). Vortexed to mix. • 4. Transferred 0.2 mL of adjusted, mixed cultures to a 96 well plate. When ≦5 strains were tested, all strains were lined together in a single row. When testing >5 strains, transfered strains into plate with no more that 5 strains in a single row. This was necessary to fit on the small plates. • 5. […] The former and latter served as growth and inoculation controls. Incubated one plate from each set of drug-free controls under required atmospheric conditions with MIC plates and one set aerobically to test for contamination with aerobic bacteria. Aerobic culture was negative for growth when working with strict anaerobe or microaerophilic strain. Some growth was visible with N. gonorrhoeae. • 6. Allowed inoculum to dry (for as short a time as necessary), then placed upside down in GasPak with appropriate number of sachets and incubate. • 7. Neisseria spp. were incubated at 37° C. in a5% CO2 environment for 24 h. MIC Determination: Examined the test plates after the correct incubation time and read the MIC endpoint at the concentration where a marked reduction occurred in the appearance of growth on the test plate as compared to that of growth on the positive control plates. [table]

Neisseria meningitidis = assay: MIC, agar dilution method (Protocol 3); assay type: cell-based; conditions: 12 isolates tested
Procedure: as §1

Mycobacterium avium = assay: MIC determination procedure for Mycobacterium species (Protocol 4); assay type: cell-based
Nocardia caviae = assay: as above; assay type: cell-based; conditions: Nocardia caviae 2497
N. asteroids = assay: as above; assay type: cell-based; conditions: N. asteroids 2039
N. nova = assay: as above; assay type: cell-based; conditions: N. nova 10
M. tuberculosis = assay: as above; assay type: cell-based
[4] = system: Mycobacterium tuberculosis; assay: Mycobacterium tuberculosis Serum Shift MIC Assay (Protocol 5); assay type: cell-based
Description: Protocol #5. Protocol for Mycobacterium tuberculosis Serum Shift MIC Assay
Media Prep: • 1. […] It was important that all media and supplements were sterilized prior to MICs. • 2. Prepared all media below and inoculated as described in next section. Tested all compounds against Mtb using each media. • a. 7H9+0.2% glycerol+10% OADC (“standard” MIC media). • b. 7H9+0.2% glycerol+2 g/L dextrose+0.85 g/L NaCl+0.003 g/L catalase (0% FBS). • c. 2×7H9+0.2% glycerol+2 g/L dextrose+0.85 g/L NaCl+0.003 g/L catalase combined with equal volume Fetal Bovine Serum (50% FBS).
Inoculum Prep: • 1. […] Typically plates were two to three weeks of age when used for this assay due to the slow growth of this organism in culture. • 2. Vortexed well, then sonicated in water bath for 30 sec providing a suspension of ˜10^8 cells/ml. […] Prepared inoculum in each of the three media formulations by diluting the BBL Prompt suspension 1/200 (for example: transferred 0.2 ml of cells to 40 ml of medium) to obtain a starting cell density of ˜10^6 cells/ml. • 4.
Drug Dilutions, Inoculation, MIC Determination: • 1. […]
After 24 hours the fluorescence of each well was measured at Excitation 492 nm, Emission 595 nm.
Percent inhibition by a given compound was calculated as follows: Percent inhibition=100−([well fluorescence-average background fluorescence]/[DMSO control−average background fluorescence]×100).

Moraxella catarrhalis = assay: MIC against Gram negatives, microdilution broth method (Protocol 2)
Escherichia coli = assay: as above
Klebsiella pneumoniae = assay: as above
Acinetobacter baumannii = assay: as above
Pseudomonas aeruginosa = assay: as above
Proteus mirabilis = assay: as above
Enterobacter cloacae = assay: as above
[5] = Staphylococcus aureus, 67 isolates tested
[6] = Enterococcus faecalis, 34 isolates tested
[7] = Streptococcus pneumoniae, 67 isolates tested
[8] = Haemophilus influenzae, 55 isolates tested
[9] = Neisseria gonorrhoeae, 13 isolates tested
[10] = M. tuberculosis Erdman ATCC 35801

## CCNC(=O)Nc1nc2cc(-c3cnc(C(C)(C)O)nc3)cc([C@H]3CCCO3)c2[nH]1 [Compound 13, methanesulfonic acid salt of 1-ethyl-3-[5-[2-(1-hydroxy-1-methyl-ethyl)pyrimidin-5-yl]-7-[(2R)-tetrahydrofuran-2-yl]-1H-benzimidazol-2-yl]urea]
Staphylococcus aureus; Staphylococcus aureus ATCC 29213
  MIC: 0.13 µg/mL
Staphylococcus aureus; Staphylococcus aureus ATCC 29213 GyrB T173I
  MIC: 1.29 µg/mL
Staphylococcus aureus; Staphylococcus aureus ATCC 29213 with Human Serum
  MIC: 0.31 µg/mL
Staphylococcus aureus; Staphylococcus aureus ATCC 29213 with Mouse Serum
  MIC: 2 µg/mL
Staphylococcus aureus; Staphylococcus aureus ATCC 29213 with Rat Serum
  MIC: 0.53 µg/mL
Staphylococcus aureus; [5]
  MIC90: 0.25 µg/mL
  MIC Range: 0.03 to 0.5 µg/mL
[1]
  MIC Range: 0.03 to 0.25 µg/mL
[1]; Staphylococcus epidermidis
  MIC90: 0.12 µg/mL
Enterococcus faecalis; Enterococcus faecalis ATCC 29212, with Laked Horse Blood
  MIC: 0.081 µg/mL
Enterococcus faecalis; [6]
  MIC90: 0.25 µg/mL
  MIC Range: 0.03 to 0.25 µg/mL
Enterococcus faecium; Enterococcus faecium
  MIC90: 0.5 µg/mL
Enterococcus faecium; Enterococcus faecium ATCC 49624, Protocol 1
  MIC: 0.25 µg/mL
Enterococcus faecium; Enterococcus faecium ATCC 49624 with Laked Horse Blood, Protocol 1
  MIC: 0.39 µg/mL
Enterococcus faecium; Enterococcus faecium, 33 isolates tested, Protocol 1
  MIC Range: 0.12 to 0.5 µg/mL
Streptococcus pneumoniae; Streptococcus pneumoniae ATCC 10015, with Laked Horse Blood
  MIC: 0.022 µg/mL
Streptococcus pneumoniae; [7]
  MIC90: 0.06 µg/mL
  MIC Range: 0.015 to 0.06 µg/mL
[2]
  MIC90: 0.25 µg/mL
  MIC Range: 0.06 to 0.5 µg/mL
Bacillus cereus; Bacillus cereus ATCC 10987
  MIC: 0.5 µg/mL
Bacillus cereus; Bacillus cereus ATCC 14579
  MIC: 0.5 µg/mL
Bacillus subtilis; Bacillus subtilis (168) ATCC 6051
  MIC: > 8 µg/mL
Bacillus subtilis; Bacillus subtilis ATCC 6638
  MIC: > 8 µg/mL
Haemophilus influenzae; Haemophilus influenzae (Rd1 KW20) ATCC 51907
  MIC: 2.5 µg/mL
Haemophilus influenzae; Haemophilus influenzae ATCC 49247
  MIC: 1 µg/mL
Haemophilus influenzae; Haemophilus influenzae Rd0894 (AcrA-)
  MIC: 0.14 µg/mL
Haemophilus influenzae; [8]
  MIC90: 2 µg/mL
  MIC Range: 0.25 to 8 µg/mL
Clostridium difficile; Clostridioides difficile, Clostridium difficile, 16 isolates tested
  MIC90: 1 µg/mL
Clostridium difficile; Clostridium difficile ATCC BAA-1382
  MIC: 1 µg/mL
Clostridium difficile; Clostridium difficile, 16 isolates tested
  MIC Range: 0.5 to 16 µg/mL
Clostridium perfringens
  MIC90: 0.5 µg/mL
Bacteroides fragilis
  MIC90: > 16 µg/mL
[3]
  MIC90: > 16 µg/mL
Fusobacterium spp.
  MIC90: 2 µg/mL
  MIC Range: 1 to 4 µg/mL
Peptostreptococcus spp.
  MIC90: > 16 µg/mL
Prevotella spp.
  MIC90: > 16 µg/mL
Neisseria gonorrhoeae; Neisseria gonorrhoeae ATCC 35541
  MIC: 1.3 µg/mL
Neisseria gonorrhoeae; Neisseria gonorrhoeae ATCC 49226
  MIC: 2.3 µg/mL
Neisseria gonorrhoeae; [9]
  MIC90: 1 µg/mL
  MIC Range: 0.5 to 1 µg/mL
Neisseria meningitidis
  MIC90: 0.12 µg/mL
  MIC Range: 0.015 to 0.25 µg/mL
Mycobacterium avium; M. avium 3404.4
  MIC: 0.94 µg/mL
Mycobacterium avium; M. avium Far
  MIC: 0.94 µg/mL
Mycobacterium avium; Mycobacterium avium 103
  MIC: 0.47 µg/mL
Nocardia caviae
  MIC: 2 µg/mL
N. asteroids
  MIC: 8 µg/mL
N. nova
  MIC: 8 µg/mL
M. tuberculosis; [10]
  MIC: 0.25 µg/mL
M. tuberculosis; M. tuberculosis H37Rv ATCC 25618
  MIC: 0.37 µg/mL
[4]; [10]
  MIC: 0.045 µg/mL
[4]; M. tuberculosis Erdman ATCC 35801 with Mouse Serum
  MIC: 2 µg/mL
Moraxella catarrhalis
  MIC90: 0.12 µg/mL
Moraxella catarrhalis; 26 isolates tested, Protocol 2
  MIC Range: 0.015 to 0.12 µg/mL
Escherichia coli
  MIC90: > 8 µg/mL
Klebsiella pneumoniae
  MIC90: > 8 µg/mL
Acinetobacter baumannii
  MIC90: > 8 µg/mL
Pseudomonas aeruginosa
  MIC90: > 8 µg/mL
Proteus mirabilis
  MIC90: > 8 µg/mL
Enterobacter cloacae
  MIC90: > 8 µg/mL
